Data published in ChEMBL document CHEMBL5518224, “Rational Design of PARP1/c-Met Dual Inhibitors for Overcoming PARP1 Inhibitor Resistance Induced by c-Met Overexpression” (J Med Chem, 2024).
Blank lines part the entries; values can stand above or below the compound they belong to.

Assays:
[1] = Half life in male SPF-ICR mouse at 10 mg/kg, ip measured upto 24 hrs by LC-MS/MS analysis; format: ADME, organism-based; details: in vivo
[2] = Tmax in male SPF-ICR mouse at 10 mg/kg, ip measured upto 24 hrs by LC-MS/MS analysis; format: ADME, organism-based; details: in vivo
[3] = Cmax in male SPF-ICR mouse at 10 mg/kg, ip measured upto 24 hrs by LC-MS/MS analysis; format: ADME, organism-based; details: in vivo
[4] = AUC (0 to t) in male SPF-ICR mouse at 10 mg/kg, ip measured upto 24 hrs by LC-MS/MS analysis; format: ADME, organism-based; details: in vivo
[5] = AUC (0 to infinity) in male SPF-ICR mouse at 10 mg/kg, ip measured upto 24 hrs by LC-MS/MS analysis; format: ADME, organism-based; details: in vivo
[6] = MRT (0 to t) in male SPF-ICR mouse at 10 mg/kg, ip measured upto 24 hrs by LC-MS/MS analysis; format: ADME, organism-based; details: in vivo
[7] = MRT (0 to infinity) in male SPF-ICR mouse at 10 mg/kg, ip measured upto 24 hrs by LC-MS/MS analysis; format: ADME, organism-based; details: in vivo
[8] = Clearance in male SPF-ICR mouse at 10 mg/kg, ip measured upto 24 hrs by LC-MS/MS analysis; format: ADME, organism-based; details: in vivo
[9] = test system: MDA-MB-231; assay: Antitumor activity against human MDA-MB-231 cells xenografted in female Balb/c nude mouse assessed as tumor growth inhibition at 12.5 mg/kg/day, ip qd administered for 28 days relative to control; format: functional; details: MDA-MB-231, 672 h, time 28 day, read-out: TGI
[10] = test system: MDA-MB-231; assay: Antitumor activity against human MDA-MB-231 cells xenografted in female Balb/c nude mouse assessed as tumor growth inhibition at 25 mg/kg/day, ip qd administered for 28 days relative to control; format: functional; details: MDA-MB-231, 672 h, time 28 day, read-out: TGI
[11] = test system: MDA-MB-231; assay: Antitumor activity against human MDA-MB-231 cells xenografted in female Balb/c nude mouse assessed as tumor growth inhibition at 50 mg/kg/day, ip qd administered for 28 days relative to control; format: functional; details: Mus musculus, MDA-MB-231, 672 h, time 28 day, read-out: TGI
[12] = test system: Olaparib-resistant HCT116; assay: Antitumor activity against human Olaparib-resistant HCT116 cells xenografted in female Balb/c nude mouse assessed as tumor growth inhibition at 5 mg/kg/day, iv qd administered for 21 days relative to control; format: functional; details: Olaparib-resistant HCT116, 504 h, time 21 day, read-out: TGI
[13] = test system: Olaparib-resistant HCT116; assay: Antitumor activity against human Olaparib-resistant HCT116 cells xenografted in female Balb/c nude mouse assessed as tumor growth inhibition at 25 mg/kg/day, ip qd administered for 21 days relative to control; format: functional; details: Olaparib-resistant HCT116, 504 h, time 21 day, read-out: TGI
[14] = test system: Olaparib-resistant HCT116; assay: Antitumor activity against human Olaparib-resistant HCT116 cells xenografted in female Balb/c nude mouse assessed as tumor growth inhibition at 50 mg/kg/day, ip qd administered for 21 days relative to control; format: functional; details: Mus musculus, Olaparib-resistant HCT116, 504 h, time 21 day, read-out: TGI
[15] = test system: Olaparib-resistant HCT116; assay: Antitumor activity against human Olaparib-resistant HCT116 cells xenografted in female Balb/c nude mouse assessed as tumor growth inhibition at 100 mg/kg/day, ip qd administered for 21 days relative to control; format: functional; details: Olaparib-resistant HCT116, 504 h, time 21 day, read-out: TGI
[16] = Toxicity in female Balb/c nude mouse xenografted with human MDA-MB-231 cells assessed as body weight loss at 12.5 to 50 mg/kg, ip qd administered for 28 days; format: organism-based; details: in vivo, 672 h, dose 12.5-50 mg/kg, time 28 day
[17] = Toxicity in female Balb/c nude mouse xenografted with human MDA-MB-231 cells assessed as adverse effects at 12.5 to 50 mg/kg, ip qd administered for 28 days; format: organism-based; details: in vivo, 672 h, dose 12.5-50 mg/kg, time 28 day
[18] = Toxicity in female Balb/c nude mouse xenografted with human Olaparib-resistant HCT116 cells assessed as body weight loss at 25 to 100 mg/kg, ip qd administered for 21 days; format: organism-based, HCT-116; details: in vivo, 504 h, dose 25-100 mg/kg, time 21 day
[19] = Toxicity in female Balb/c nude mouse xenografted with human Olaparib-resistant HCT116 cells assessed as adverse effects at 25 to 100 mg/kg, ip qd administered for 21 days; format: organism-based, HCT-116; details: in vivo, 504 h, dose 25-100 mg/kg, time 21 day
[20] = target: Hepatocyte growth factor receptor (Homo sapiens, UniProt P08581); assay: Inhibition of c-Met (unknown origin)
Sequence of Hepatocyte growth factor receptor (P08581 whole entry): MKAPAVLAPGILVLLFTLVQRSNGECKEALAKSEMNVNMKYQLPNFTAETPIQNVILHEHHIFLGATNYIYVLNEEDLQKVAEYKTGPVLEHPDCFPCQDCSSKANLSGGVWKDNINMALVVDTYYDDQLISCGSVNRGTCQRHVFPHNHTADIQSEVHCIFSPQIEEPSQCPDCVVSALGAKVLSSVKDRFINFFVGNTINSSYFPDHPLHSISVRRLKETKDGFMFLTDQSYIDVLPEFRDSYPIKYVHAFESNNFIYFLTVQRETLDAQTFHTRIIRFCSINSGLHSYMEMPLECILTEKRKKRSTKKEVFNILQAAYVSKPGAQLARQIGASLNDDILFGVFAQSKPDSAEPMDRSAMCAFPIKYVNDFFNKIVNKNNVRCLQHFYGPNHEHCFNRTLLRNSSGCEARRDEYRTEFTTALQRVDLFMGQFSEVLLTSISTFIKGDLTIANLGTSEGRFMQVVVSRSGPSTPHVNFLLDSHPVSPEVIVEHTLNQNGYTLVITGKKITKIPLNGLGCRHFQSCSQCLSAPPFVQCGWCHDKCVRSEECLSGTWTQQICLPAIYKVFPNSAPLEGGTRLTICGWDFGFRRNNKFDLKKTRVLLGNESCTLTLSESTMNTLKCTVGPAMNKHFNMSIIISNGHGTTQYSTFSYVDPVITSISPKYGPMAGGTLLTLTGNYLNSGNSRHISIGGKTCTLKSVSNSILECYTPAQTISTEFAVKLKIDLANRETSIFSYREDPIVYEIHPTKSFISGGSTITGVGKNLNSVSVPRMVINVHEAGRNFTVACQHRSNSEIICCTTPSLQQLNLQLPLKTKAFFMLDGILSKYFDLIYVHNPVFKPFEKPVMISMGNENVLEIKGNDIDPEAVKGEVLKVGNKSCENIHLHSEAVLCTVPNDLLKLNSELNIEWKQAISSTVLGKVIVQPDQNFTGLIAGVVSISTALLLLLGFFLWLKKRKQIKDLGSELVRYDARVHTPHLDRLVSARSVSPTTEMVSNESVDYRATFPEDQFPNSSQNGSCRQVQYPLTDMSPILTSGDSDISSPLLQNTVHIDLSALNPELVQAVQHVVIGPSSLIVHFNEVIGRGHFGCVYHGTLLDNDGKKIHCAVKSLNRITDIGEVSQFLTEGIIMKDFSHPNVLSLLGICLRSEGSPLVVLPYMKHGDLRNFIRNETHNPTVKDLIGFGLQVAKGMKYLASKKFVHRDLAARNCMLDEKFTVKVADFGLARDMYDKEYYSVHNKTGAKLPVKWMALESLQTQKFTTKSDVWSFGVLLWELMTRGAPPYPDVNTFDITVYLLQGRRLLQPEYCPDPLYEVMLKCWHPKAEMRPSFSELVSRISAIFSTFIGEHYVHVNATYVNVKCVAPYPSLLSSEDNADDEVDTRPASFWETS

Structure (SMILES): Cl.O=C(c1cc(Cc2n[nH]c(=O)c3ccccc23)ccc1F)N1CCN(c2ccc3c(OCCn4nc(-c5cccnc5)ccc4=O)ccnc3c2)CC1
half-life [1]: 1.42 h
Tmax [2]: 0.25 h
Cmax [3]: 152 ng/mL
AUC(0-t) at 24 h [4]: 95.4 ng·h/mL
AUC(0-inf) [5]: 96.7 ng·h/mL
MRT last at 24 h [6]: 1.67 h
MRT inf [7]: 1.77 h
CL/F [8]: 2020 mL/min/kg
inhibition in vivo at 12.5 mg/kg/day [9]: 49%
inhibition in vivo at 25 mg/kg/day [10]: 60%
inhibition in vivo at 50 mg/kg/day [11]: 77%
inhibition in vivo at 5 mg/kg/day [12]: 59%
inhibition in vivo at 25 mg/kg/day [13]: 62%
inhibition in vivo at 50 mg/kg/day [14]: 64%
inhibition in vivo at 100 mg/kg/day [15]: 70%
Activity [16]: Non-Toxic
Activity [17]: Non-Toxic
Activity [18]: Non-Toxic
Activity [19]: Non-Toxic

Ki [20]: 335 nM
Structure (SMILES): O=C1NC(=O)[C@@H](c2cn3c4c(cccc24)CCC3)[C@@H]1c1c[nH]c2ccccc12 [TIVANTINIB]
